Measured values taken from US20090203750A1, “5-HT2C Receptor Agonists as Anorectic Agents” (priority 2005, published 2009).
Read-outs that look alike come from different tables or passages of the source.

Legend:
Format in all cases: cell-based
human 5-HT2B receptor = target: T1, human 5-HT2B receptor (Homo sapiens, UniProt P41595); assay: Functional activity by Ca++-flux (intracellular calcium mobilization), 5-HT2B
T1 construct: expressed in transfected cells; host or cells: HEK293 (ATCC CRL-1573), retroviral infection with pBabepuro-FLAG-h5-HT2BR, polyclonal line

human 5-HT2A receptor = target: T2, human 5-HT2A receptor (Homo sapiens, UniProt P28223); assay: Functional activity by Ca++-flux (intracellular calcium mobilization), 5-HT2A; conditions: for EC50: Ca++-flux, HEK-293 cells, NA = not active
T2 construct: expressed in transfected cells; host or cells: HEK-293
Method: The functional activity of the compounds for the human 5-HT2A, human 5-HT2B, and human 5-HT2C receptors is determined by measurement of Ca++-flux as detailed in the Examples, in transiently transfected HEK-293 cells and the results are summarized in Table I. Structures of compounds listed in Table I are given in Scheme 15.
(§1) The functional activity of compounds for the human 5-HT2A, human 5-HT2B, and human 5-HT2C receptors as agonists, partial agonists and antagonists is determined by measurement of Ca++-flux. The results are summarized in Table 1 where EC50 for different receptors are given (nM) and the ratio of activities 2A/2C and 2B/2C are also given. As noted above, other methods for assessing agonist/antagonist function of compounds for 5-HT2 family receptors are known in the art.
(§2) For these studies stably expressing lines of h5-HT2A, h5-HT2B, and h5-HT2C receptors are prepared in HEK-293 cells. For the h5-HT2A and h5-HT2C-INI receptors, stably expressing HEK-293 cell lines were constructed as previously described using a pIRES-NEO vector system (See: Rauser et al, J Pharmacol Exp Ther 299: 83-89, 2001).
(§3) Stable cell lines were plated with ˜40,000 cells/well into uncoated (3T3 cells) or poly-L-lysine coated (HEK293 cells) 96-well plates in DMEM supplemented with 5% dialyzed FBS. 16-24 hrs post-plating, the medium was aspirated and replaced with 30 μl/well of Calcium Assay Kit Component A Dye (Molecular Devices; Sunnyvale, Calif.) dissolved in 30 ml/bottle of assay buffer (2.5 mM probenecid, 20 mM Hepes, and 1× Hanks' Balanced Salt Solution (Invitrogen; Carlsbad, Calif.) (138 mM NaCl, 5.3 mM KCl, 1.3 mM CaCl2, 0.49 mM MgCl2, 0.41 mM MgSO4, 0.44 mM KH2PO4, 0.34 mM Na2HPO4) pH 7.4. Plates were incubated in the dye for 1 hr at 37° C. Dilutions were made in assay buffer as 2× stocks and added to 96-well drug plates. Fluorometric imaging was performed using a FlexStation II plate reader (Molecular Devices) reading the plate at 1.5 second intervals for 1 min. After establishing a fluorescent baseline (excitation at 485 nm and emission at 525 nm, using a […] cutoff), the FlexStation II automatically transferred 30 μl of 2× drug stocks from the drug plate to the cell plate at the 20 second time point with reading for another 40 seconds. Peak relative fluorescence units (RFU) were subtracted from baseline RFUs using SoftMax Pro (Molecular Devices) and values were imported into GraphPad Prism version 4.03 (GraphPad Software; San Diego, Calif.) for analysis. Ca++-flux studies are very convenient for initial screening of large numbers of compounds for agonist activity.
Compounds are resuspended in DMSO at a stock concentration of 2-15 mM and, for a typical agonist screen, are diluted in assay buffer to a final 2× concentration of 20 μM into drugs plates. Compounds are added in duplicate to cell plates using the FlexStation II as described to identify agonists, defined as having >10% of maximal 5-HT response. […] Generally, screens are performed twice with each determination being made in duplicate. Typical Z′-factor (Zhang et al., 1999) values for agonist screens ranged from 0.61-0.79 (5-HT2AR), 0.42-0.81 (5-HT2BR) and 0.38-0.72 (5-HT2CR); these Z′-factor values are adequate for screening studies in which N=2 determinations are made and the screens replicated for a total of N=4 determinations.
(§4) Compounds identified by primary screens to be agonists are subsequently used in concentration-response experiments to verify the initial observations and obtain agonist potencies. Concentration-response studies are performed in triplicate or quadruplicate at each concentration and repeated three times. Baseline-subtracted RFU values imported into GraphPad Prism are analyzed by non-linear regression to obtain pEC50 values, and normalized to maximal 5-HT response to obtain relative efficacies.

human 5-HT2C receptor = target: T3, human 5-HT2C receptor (Homo sapiens, UniProt P28335); assay: Functional activity by Ca++-flux (intracellular calcium mobilization), 5-HT2C; conditions: for EC50: Ca++-flux, HEK-293 cells, NA = not active, read-out: 5-HT2C human EC50; for 2A/2C ratio: ratio of EC50 5-HT2A / 5-HT2C; for 2B/2C ratio: ratio of EC50 5-HT2B / 5-HT2C
T3 construct: expressed in transfected cells; host or cells: HEK-293
T3 sequence (P28335 33-458): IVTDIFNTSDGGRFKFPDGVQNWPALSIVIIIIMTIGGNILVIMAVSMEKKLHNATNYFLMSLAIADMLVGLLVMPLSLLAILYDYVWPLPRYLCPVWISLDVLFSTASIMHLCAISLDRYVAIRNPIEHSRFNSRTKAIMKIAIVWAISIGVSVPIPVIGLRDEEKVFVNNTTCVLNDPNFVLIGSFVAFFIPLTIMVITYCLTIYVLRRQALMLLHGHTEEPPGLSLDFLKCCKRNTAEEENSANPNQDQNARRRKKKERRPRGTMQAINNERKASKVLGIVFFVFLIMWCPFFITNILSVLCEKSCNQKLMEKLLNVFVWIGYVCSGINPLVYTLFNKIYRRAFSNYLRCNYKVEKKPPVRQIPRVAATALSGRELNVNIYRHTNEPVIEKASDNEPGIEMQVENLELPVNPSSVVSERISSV
Method: as §1, with “The results are summarized in Table 1 where EC50 for different receptors are given (nM) and the ratio of activities 2A/2C and 2B/2C are also given.” left out
as §2, §3
Compounds are resuspended in DMSO at a stock concentration of 2-15 mM and, for a typical agonist screen, are diluted in assay buffer to a final 2× concentration of 20 μM into drugs plates. Compounds are added in duplicate to cell plates using the FlexStation II as described to identify agonists, defined as having >10% of maximal 5-HT response. […] Generally, screens are performed twice with each determination being made in duplicate.
as §4

[1] = Ca++-flux, HEK-293 cells, NA = not active, read-out: 5-HT2B human EC50

T2 sequence (P28223 whole entry): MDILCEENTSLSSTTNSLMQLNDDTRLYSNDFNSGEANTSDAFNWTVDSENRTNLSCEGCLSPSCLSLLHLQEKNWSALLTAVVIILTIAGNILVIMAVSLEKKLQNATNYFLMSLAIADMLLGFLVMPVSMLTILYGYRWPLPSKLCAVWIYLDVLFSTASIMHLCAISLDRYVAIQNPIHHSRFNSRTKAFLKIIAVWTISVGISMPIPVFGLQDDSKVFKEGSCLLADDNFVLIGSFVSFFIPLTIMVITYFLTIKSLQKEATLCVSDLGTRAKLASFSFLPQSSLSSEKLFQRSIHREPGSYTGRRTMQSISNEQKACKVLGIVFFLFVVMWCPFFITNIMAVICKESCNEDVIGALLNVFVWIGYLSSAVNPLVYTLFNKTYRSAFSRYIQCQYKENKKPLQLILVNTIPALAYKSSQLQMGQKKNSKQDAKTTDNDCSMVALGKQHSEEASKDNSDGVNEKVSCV
T1 sequence (P41595 whole entry): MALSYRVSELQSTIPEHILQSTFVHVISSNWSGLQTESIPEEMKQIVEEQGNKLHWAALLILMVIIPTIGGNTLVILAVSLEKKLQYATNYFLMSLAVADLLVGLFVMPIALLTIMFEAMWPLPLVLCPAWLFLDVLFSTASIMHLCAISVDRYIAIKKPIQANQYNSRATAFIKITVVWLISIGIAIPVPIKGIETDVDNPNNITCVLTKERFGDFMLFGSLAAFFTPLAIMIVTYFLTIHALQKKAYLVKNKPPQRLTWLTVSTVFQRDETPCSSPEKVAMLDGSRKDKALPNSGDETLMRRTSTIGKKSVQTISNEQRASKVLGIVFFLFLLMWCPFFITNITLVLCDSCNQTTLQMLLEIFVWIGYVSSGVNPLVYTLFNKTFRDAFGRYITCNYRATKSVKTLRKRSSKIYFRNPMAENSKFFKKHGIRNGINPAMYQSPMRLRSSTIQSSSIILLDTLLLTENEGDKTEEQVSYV

Work on “trans-(±)-(2-Naphthalen-2-yl-cyclopropyl)-methylamine hydrochloride [TKU-II-42]” yielded an EC50 (human 5-HT2B receptor; [1]) of 15.4 µM, an EC50 (human 5-HT2A receptor) of 0.951 µM and an EC50 (human 5-HT2C receptor) of 6.75 µM. It also gave a 2A/2C ratio (human 5-HT2C receptor) of 0.14 and a 2B/2C ratio (human 5-HT2C receptor) of 2.29.

With `CC(C)N[C@@H]1C[C@H]1c1ccccc1` (racemic) [TKU-II-33, trans-(±)-Isopropyl-(2-phenyl-cyclopropyl)-amine] the EC50 (human 5-HT2A receptor) was 1470 µM, the EC50 (human 5-HT2C receptor) was 8.84 µM and the 2A/2C ratio (human 5-HT2C receptor) was 166.

Molecule `c1ccc(CNC[C@@H]2C[C@H]2c2ccccc2)cc1` (racemic) [TKU-II-36, trans-(±)-N-Benzyl-(2-phenyl-cyclopropylmethyl)-amine] has an EC50 (human 5-HT2B receptor; [1]) of 1020 µM, an EC50 (human 5-HT2A receptor) of 123 µM and an EC50 (human 5-HT2C receptor) of 7.46 µM. It also gave a 2A/2C ratio (human 5-HT2C receptor) of 16.5 and a 2B/2C ratio (human 5-HT2C receptor) of 137.

`c1ccc(CN[C@@H]2C[C@H]2c2ccccc2)cc1` (racemic) [TKU-II-30, trans-(±)-Benzyl-(2-phenyl-cyclopropyl)-amine] was tested, and the EC50 (human 5-HT2B receptor) was 10700 µM, the EC50 (human 5-HT2A receptor) was 9790 µM and the EC50 (human 5-HT2C receptor) was 10.5 µM. For the same molecule, the 2A/2C ratio (human 5-HT2C receptor) was 929.5 and the 2B/2C ratio (human 5-HT2C receptor) was 1020.

Molecule “trans-(−)-[2-(3-Bromo-phenyl)-cyclopropyl]-methylamine Hydrochloride [TKU-II-153-2]” has an EC50 (human 5-HT2B receptor; [1]) of 0.251 µM, an EC50 (human 5-HT2A receptor) of 2.27 µM and an EC50 (human 5-HT2C receptor) of 0.307 µM. For the same molecule, the 2A/2C ratio (human 5-HT2C receptor) was 7.4 and the 2B/2C ratio (human 5-HT2C receptor) was 0.82.

With `CN[C@@H]1C[C@H]1c1ccccc1` (racemic) [TKU-II-38, trans-(±)-Methyl-(2-phenyl-cyclopropyl)-amine] the EC50 (human 5-HT2A receptor) was 165 µM, the EC50 (human 5-HT2C receptor) was 2.5 µM and the 2A/2C ratio (human 5-HT2C receptor) was 65.8.

“trans-(±)-[2-(4-Fluoro-phenyl)-cyclopropyl]-methylamine Hydrochloride [TKU-II-90]” gave an EC50 (human 5-HT2A receptor) of 0.0071 µM.

Molecule “trans-(±)-(2-Phenyl-cyclopropyl)-methylamine Hydrochloride [TKU-II-113]” has an EC50 (human 5-HT2B receptor; Ca++-flux, HEK-293 cells, NA = not active, Hydrochloride, read-out: 5-HT2B human EC50) of 0.0353 µM, an EC50 (human 5-HT2A receptor; Hydrochloride) of 0.0443 µM and an EC50 (human 5-HT2C receptor; Hydrochloride) of 0.0045 µM. It also gave a 2A/2C ratio (human 5-HT2C receptor; Hydrochloride) of 9.84 and a 2B/2C ratio (human 5-HT2C receptor; Hydrochloride) of 7.84.

Work on “trans-(±)-[2-(4-Bromo-phenyl)-cyclopropyl]-methylamine Hydrochloride [TKU-II-44]” yielded an EC50 (human 5-HT2B receptor; [1]) of 0.495 µM, an EC50 (human 5-HT2A receptor) of 1.06 µM and an EC50 (human 5-HT2C receptor) of 0.18 µM. It also gave a 2A/2C ratio (human 5-HT2C receptor) of 5.90 and a 2B/2C ratio (human 5-HT2C receptor) of 2.75.

With “cis-(±)-(2-Phenyl-cyclopropyl)-methylamine Hydrochloride [TKU-II-19]” the “activity at 5-HT2B receptor” value (human 5-HT2B receptor) was “poorly active”, the EC50 (human 5-HT2B receptor; [1]) was 0.308 µM and the “activity at 5-HT2A receptor” value (human 5-HT2A receptor) was “poorly active”. The EC50 (human 5-HT2A receptor) was 0.705 µM, the “activity at 5-HT2C receptor” value (human 5-HT2C receptor) was “poorly active” and the EC50 (human 5-HT2C receptor) was 0.152 µM. The 2A/2C ratio (human 5-HT2C receptor) was 4.64 and the 2B/2C ratio (human 5-HT2C receptor) was 2.03.
